Data published in paper PMC6270814, “Effects of Ursolic Acid Derivatives on Caco-2 Cells and Their Alleviating Role in Streptozocin-Induced Type 2 Diabetic Rats” (Molecules, 2014).

Experiments:
Caco-2 cells [1] = test: MTT cytotoxicity assay on Caco-2 cells; format: cell-based, Human; details: Homo sapiens, 24 h, mean ± SD, n = 4, read-out: Inhibition Rate %
Description: Human intestinal Caco-2 cells (ATCC, Rockville, MD, USA) were incubated at 37 °C in a humidified atmosphere of 5% CO2 in air. The cells were cultured in Dulbecco’s […] medium (DMEM) with 10% heat-inactivated fetal bovine serum, 1% non-essential amino acids, 1% L-glutamine, 1% penicillin/streptomycin (Gibco Life Technologies, Grand Island, NY, USA). The cells were sub-cultured at confluence by 0.05% trypsin-0.5 mM EDTA treatment before they were applied in the experiment.
A MTT test was conducted to determine the possible toxicity of UA and its derivatives to Caco-2 cells. Briefly, cells were seeded at a density of 1 × 10^4 cells/mL in a 96-well plate and incubated for 24 h. The next day, cells were incubated with vehicle (0.1% DMSO) and compounds at 100, 50, 25, 12.5 μmol/L for 24 h, and then 5 g/L MTT solution (20 μL) was added for 4 h. Absorbance at 570 nm was measured using a Multimodel Plate Reader (Infinite 200, Tecan, Mannedorf, Switzerland).

[2] = test system: STZ-induced diabetic rats; test: Fasting blood glucose in STZ-induced diabetic rats, 4 weeks treatment; format: in vivo, rat; details: STZ diabetic rats
Description: Adult male albino rats of Sprague-Dawley rats (180–220 g) were obtained from the Guangdong Medical Lab Animal Center, and maintained under standard laboratory conditions in a temperature (25–30 °C) and light-controlled (12-h light/dark cycle) room with 35%–60% humidity. The animals were acclimatized for 10 days before the experiments and provided with rodent chow and water ad libitum. The investigation was conducted in accordance with the Guide for the Care and Use of Laboratory Animals and approved by the institutional Animal Ethics Committee.
(§1) Diabetes was induced by a single intraperitoneal injection of streptozotocin (Sigma-Aldrich, St. Louis, MO, USA) at a dose of 65 mg/kg body weight. STZ was dissolved in 0.1 M cold citrate buffer, pH 4.5. Control group were injected with citrate buffer alone. After 7 days for the development of diabetes, plasma glucose levels were determined of each rat. Rats with fasting blood glucose (FBG) range of above 16.7 mmol/L were considered as DM rats and were used for further study.
(§2) According to the body weight and plasma glucose levels the rats were divided randomly into seven groups with six rats each and treated as follows: • Group I: Normal rats treated with 0.5% CMC-Na (2 mL/200 g body weight). • Group II: Diabetic rats treated with 0.5% CMC-Na. • Group III: Diabetic rats treated with 10 mg/kg of glibenclamide. • Group IV: Diabetic rats treated with 100 mg/kg of compound 1 (UA). • Group V: Diabetic rats treated with 100 mg/kg of compound 10. • Group VI: Diabetic rats treated with 100 mg/kg of compound 11. • Group VII: Diabetic rats treated with 100 mg/kg of compound 12.
(§3) The treatment was continued daily for 28 days. Blood glucose levels and body weight were measured every week to ascertain the status of diabetes. After 4 weeks of treatment, the animals were fasted for 12 h and sacrificed by cervical dislocation under mild anaesthetization, blood was collected into heparinized tubes and centrifuged at 2,000 rpm for 10 min. Livers and kidneys were removed, washed and homogenized in ice-cold normal saline. This homogenates were centrifuged at 3,000 rpm for 10 min at 4 °C, and the supernatants were collected for the estimate of antioxidant markers.
(§4) Fasting blood glucose levels were estimated on days 0, 7, 14, 28 with the single touch glucometer (Life Scan, Johnson & Johnson Company, New Brunswick, NJ, USA). Serum insulin level was measured by use of a commercial immunoassay kit by enzyme linked immunosorbent assay (Uscn. Life Science Inc., Wuhan, China). Serum total protein, albumin, triglycerides (TG), total cholesterol (TC), high-density lipoprotein cholesterol (HDL-C), and low-density lipoprotein cholesterol (LDL-C) were measured with an automatic biochemical analyzer (Sinnowa D240, Nanjing, China).

[3] = test system: STZ-induced diabetic rats; test: Serum biochemical parameters (insulin, total protein, albumin) in STZ-induced diabetic rats; format: in vivo, rat; details: 4 weeks, compounds 100 mg/kg, glibenclamide 10 mg/kg
Description: as §1, §2, §3, §4

[4] = test system: STZ-induced diabetic rats; test: Body weight and daily food intake of STZ-induced diabetic rats; format: in vivo, rat; details: compounds 100 mg/kg, glibenclamide 10 mg/kg, oral
Description: as §1, §2, §3

[5] = test system: STZ-induced diabetic rats; test: Oxidative stress markers (GSH, SOD, MDA) in liver and kidney of STZ-induced diabetic rats; format: in vivo, rat; details: 4 weeks
Description: as §1, §2, §3
The tissue homogenates of liver and kidney were used for the estimate of antioxidant markers. Glutathione (GSH) level was measured with 5, 5'-dithiobis-(2-nitrobenzoic acid) (DTNB) as described by Sedlak and Lindsay. Superoxide dismutase (SOD) activity was assessed according to the method of Sinha. Malondialdehyde (MDA) activity was estimated with the thiobarbituric acid method.

Caco-2 cells [6] = test: 2-NBDG glucose uptake by Caco-2 cell monolayers, Na+-independent (sodium free buffer); format: cell-based, Human; details: 100 μM compound, Na+-independent (KCl/K2HPO4 buffer)
Description: Caco-2 cells, which were derived from human colon adenocarcinoma, were selected for intestinal absorption studies because these cells express the morphological characteristics and most of the functional properties of differentiated small-intestinal enterocytes. Caco-2 cells were seeded on 24-well plates at the density of 2 × 10^5 cells/well. The medium was changed every 1–2 days, and the culture was carried out for 13 days. Then Caco-2 cells were placed in serum-free media for 24 h and then they were washed twice with Hanks’ balanced salt solution (HBSS, pH 7.5, 140 mM NaCl, 5 mM KCl, 1.2 mM Na2HPO4, 2 mM CaCl2, 1.2 mM MgSO4, 20 mM HEPES, 0.2% bovine serum albumin) before the uptake studies. When a sodium free buffer was required, NaCl and Na2HPO4 were replaced with equal amounts of KCl and K2HPO4, respectively. After washing, the cells were incubated for 15 min at room temperature in HBSS before the commencement of this experiment. The uptake studies were initiated by adding HBSS containing either control or test solution (100 μM) and […] (100 μM) for 30 min at 37 °C. Glucose uptake was stopped by adding twofold volume of ice-cold PBS and the wells were washed with ice-cold PBS three times. Fluorescent intensity was measured by a Multimodel Plate Reader (Tecan Infinity 200) with the 485 nmex and 535 nmemiss filter set before and after adding 2-NBDG. Then the cells were lysed in 200 μL lysis buffer (10 mM Tris-HCl pH = 7.4, 150 mM NaCl, 1% Triton-x-100, 1 mM EDTA, 0.1% SDS) and supplemented immediately before they were processed with 10 μg/mL PMSF. Cells were allowed to lyse on ice, and then vortexed and sonicated. The lysate was used for protein determination, protein concentrations were determined as described by BCA kit (Boster, Wuhan, China) with bovine serum albumin as standard.

CC(=O)O[C@H]1CC[C@@]2(C)C(CC[C@]3(C)C2CC=C2C4[C@@H](C)[C@H](C)CC[C@]4(C(=O)Nc4ccccc4)CC[C@]23C)C1(C)C (stereo partly shown) [Compound 2]
inhibition at 100 µM (Caco-2 cells [1]): 5.02 ± 2.38%

CC(=O)O[C@H]1CC[C@@]2(C)C(CC[C@]3(C)C2CC=C2C4[C@@H](C)[C@H](C)CC[C@]4(C(=O)Nc4ccccc4Br)CC[C@]23C)C1(C)C (stereo partly shown) [Compound 8]
inhibition at 100 µM (Caco-2 cells [1]): 9.86 ± 2.68%

C[C@H]1[C@H](C)CC[C@]2(C(=O)O)CC[C@]3(C)C(=CC[C@@H]4[C@@]5(C)CC[C@H](O)C(C)(C)[C@@H]5CC[C@]43C)[C@H]12 [Compound 1, Ursolic acid]
inhibition at 100 µM (Caco-2 cells [1]): 9.88 ± 6.51%
effect on lowering fasting blood glucose levels ([2]; 100 mg/kg, 4 weeks): no significant effect
Fasting Blood Glucose Level, Week 0 ([2]; Week 0 (before treatment), compounds 100 mg/kg, glibenclamide 10 mg/kg, n = 6): 342.00 ± 19.08 mg/dL
Fasting Blood Glucose Level, Week 1 ([2]; Week 1, compounds 100 mg/kg, glibenclamide 10 mg/kg daily, n = 6): 405.00 ± 17.46 mg/dL
Fasting Blood Glucose Level, Week 2 ([2]; Week 2, compounds 100 mg/kg, glibenclamide 10 mg/kg daily, n = 6): 392.40 ± 13.32 mg/dL
Fasting Blood Glucose Level, Week 3 ([2]; Week 3, compounds 100 mg/kg, glibenclamide 10 mg/kg daily, n = 6): 379.80 ± 19.44 mg/dL
Fasting Blood Glucose Level, Week 4 ([2]; Week 4, compounds 100 mg/kg, glibenclamide 10 mg/kg daily, n = 6): 396.00 ± 16.92 mg/dL
serum albumin level vs diabetic control [3]: no appreciable improvement
serum insulin level vs diabetic control [3]: non-significant effect
serum total protein level vs diabetic control [3]: no appreciable improvement
daily food intake vs untreated diabetic rats [4]: no obvious decrease
GSH level in kidney ([5]; kidney of STZ diabetic rats): great effect
MDA level in the liver ([5]; liver of STZ diabetic rats, daily administration): obviously down-regulated

CC(=O)O[C@H]1CC[C@@]2(C)C(CC[C@]3(C)C2CC=C2C4[C@@H](C)[C@H](C)CC[C@]4(C(=O)O)CC[C@]23C)C1(C)C (stereo partly shown) [Compound 9]
inhibition at 100 µM (Caco-2 cells [1]): 4.4 ± 3.09%

O=C(CCc1ccc(O)cc1)c1c(O)cc(O)cc1O[C@@H]1O[C@H](CO)[C@@H](O)[C@H](O)[C@H]1O [Phlorizin, reference compound]
inhibition at 100 µM (Caco-2 cells [1]): 7.7 ± 3.91%
glucose uptake, % of the control value (Na+-independent) (Caco-2 cells [6]): 75 % of the control value

CC(=O)O[C@H]1CC[C@@]2(C)C(CC[C@]3(C)C2CC=C2C4[C@@H](C)[C@H](C)CC[C@]4(C(=O)Nc4ccccc4Cl)CC[C@]23C)C1(C)C (stereo partly shown) [Compound 7]
inhibition at 100 µM (Caco-2 cells [1]): 8.14 ± 3.81%
